# Results from the supplement of paper PMC10307832.
# Tests used:
# Assay in all cases: relative viability (nuclei count vs DMSO), 5 days (fraction); higher = more cells survive
# [1] = test system: NCI-H1395
# Summary of the method: (§1)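 Relative viability was taken as the ratio of nuclei in treated wells to nuclei in vehicle wells. Lung cancer cell lines in 1536-well plates received compounds by pin tool one day after seeding, either one drug alone or a fixed anchor-drug dose plus five library-drug doses (not always all listed) in √10 steps. Nuclei were counted on 4× images after 5 days of treatment, and values are medians of duplicate plates.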
# [2] = test system: UMC-11
# Summary of the method: as §1
# [3] = test system: NCI-H1734
# Summary of the method: as §1
# [4] = test system: RERF-LC-KJ
# Summary of the method: as §1
# [5] = test system: NCI-H1651
# Summary of the method: as §1
# [6] = test system: HCC-366
# Summary of the method: as §1
# [7] = test system: PC-3 [JPC-3]
# Summary of the method: as §1
# [8] = test system: EPLC-272H
# Summary of the method: as §1
# [9] = test system: LOU-NH91
# Summary of the method: as §1
# [10] = test system: NCI-H2087
# Summary of the method: as §1
# [11] = test system: ABC-1
# Summary of the method: as §1
# [12] = test system: LU99A
# Summary of the method: as §1
# [13] = test system: NCI-H2228
# Summary of the method: as §1
# [14] = test system: LC-2-ad
# Summary of the method: as §1
# [15] = test system: NCI-H1944
# Summary of the method: as §1
# [16] = test system: NCI-H460
# Summary of the method: as §1
# [17] = test system: NCI-H1793
# Summary of the method: as §1
# [18] = test system: NCI-H1755
# Summary of the method: as §1
# [19] = test system: HCC-78
# Summary of the method: as §1
# [20] = test system: NCI-H3122
# Summary of the method: as §1
# [21] = test system: CAL-12T
# Summary of the method: as §1
# [22] = test system: NCI-H2405
# Summary of the method: as §1
compound,measurement,setting,value
Clc1ccc(Nc2nnc(Cc3ccncc3)c3ccccc23)cc1 [Vatalanib] + C[C@]1(O)C[C@@H](c2nc(-c3ccc4ccc(-c5ccccc5)nc4c3)c3c(N)nccn32)C1 [Linsitinib] (partner 1 µM),relative viability,[1]; first compound 0.04 µM,1.14
same,relative viability,[1]; first compound 0.1265 µM,0.99
same,relative viability,[1]; first compound 0.4 µM,1.63
same,relative viability,[1]; first compound 1.265 µM,0.998
same,relative viability,[1]; first compound 4 µM,0.86
same,relative viability,[2]; first compound 0.04 µM,1.03
same,relative viability,[2]; first compound 0.1265 µM,0.808
same,relative viability,[2]; first compound 0.4 µM,1.01
same,relative viability,[2]; first compound 1.265 µM,1.04
same,relative viability,[2]; first compound 4 µM,0.987
same,relative viability,[3]; first compound 0.04 µM,0.971
same,relative viability,[3]; first compound 0.1265 µM,0.866
same,relative viability,[3]; first compound 0.4 µM,1.03
same,relative viability,[3]; first compound 1.265 µM,0.886
same,relative viability,[3]; first compound 4 µM,0.859
same,relative viability,[4]; first compound 0.04 µM,0.932
same,relative viability,[4]; first compound 0.1265 µM,0.875
same,relative viability,[4]; first compound 0.4 µM,0.933
same,relative viability,[4]; first compound 1.265 µM,0.762
same,relative viability,[4]; first compound 4 µM,0.812
same,relative viability,[5]; first compound 0.04 µM,0.971
same,relative viability,[5]; first compound 0.1265 µM,0.927
same,relative viability,[5]; first compound 0.4 µM,0.94
same,relative viability,[5]; first compound 1.265 µM,0.948
same,relative viability,[5]; first compound 4 µM,1.13
same,relative viability,[6]; first compound 0.04 µM,0.722
same,relative viability,[6]; first compound 0.1265 µM,0.456
same,relative viability,[6]; first compound 0.4 µM,0.725
same,relative viability,[6]; first compound 1.265 µM,0.542
same,relative viability,[6]; first compound 4 µM,0.609
same,relative viability,[7]; first compound 0.04 µM,0.986
same,relative viability,[7]; first compound 0.1265 µM,1.01
same,relative viability,[7]; first compound 0.4 µM,0.957
same,relative viability,[7]; first compound 1.265 µM,0.824
same,relative viability,[7]; first compound 4 µM,0.932
same,relative viability,[8]; first compound 0.04 µM,1.2
same,relative viability,[8]; first compound 0.1265 µM,1.19
same,relative viability,[8]; first compound 0.4 µM,1.27
same,relative viability,[8]; first compound 1.265 µM,1.18
same,relative viability,[8]; first compound 4 µM,1.31
same,relative viability,[9]; first compound 0.04 µM,1.02
same,relative viability,[9]; first compound 0.1265 µM,0.921
same,relative viability,[9]; first compound 0.4 µM,0.757
same,relative viability,[9]; first compound 1.265 µM,0.913
same,relative viability,[9]; first compound 4 µM,0.89
same,relative viability,[10]; first compound 0.04 µM,1.2
same,relative viability,[10]; first compound 0.1265 µM,0.87
same,relative viability,[10]; first compound 0.4 µM,1.04
same,relative viability,[10]; first compound 1.265 µM,0.908
same,relative viability,[10]; first compound 4 µM,1.05
same,relative viability,[11]; first compound 0.04 µM,0.89
same,relative viability,[11]; first compound 0.1265 µM,0.767
same,relative viability,[11]; first compound 0.4 µM,1.05
same,relative viability,[11]; first compound 1.265 µM,0.659
same,relative viability,[11]; first compound 4 µM,0.981
same,relative viability,[12]; first compound 0.04 µM,0.545
same,relative viability,[12]; first compound 0.1265 µM,0.585
same,relative viability,[12]; first compound 0.4 µM,0.558
same,relative viability,[12]; first compound 1.265 µM,0.534
same,relative viability,[12]; first compound 4 µM,0.49
same,relative viability,[13]; first compound 0.04 µM,0.825
same,relative viability,[13]; first compound 0.1265 µM,0.508
same,relative viability,[13]; first compound 0.4 µM,0.83
same,relative viability,[13]; first compound 1.265 µM,0.664
same,relative viability,[13]; first compound 4 µM,0.761
same,relative viability,[14]; first compound 0.04 µM,0.916
same,relative viability,[14]; first compound 0.1265 µM,0.799
same,relative viability,[14]; first compound 0.4 µM,0.971
same,relative viability,[14]; first compound 1.265 µM,0.841
same,relative viability,[14]; first compound 4 µM,0.883
same,relative viability,[15]; first compound 0.04 µM,1.11
same,relative viability,[15]; first compound 0.1265 µM,0.997
same,relative viability,[15]; first compound 0.4 µM,1.17
same,relative viability,[15]; first compound 1.265 µM,1.2
same,relative viability,[15]; first compound 4 µM,1.23
same,relative viability,[16]; first compound 0.04 µM,1.01
same,relative viability,[16]; first compound 0.1265 µM,0.684
same,relative viability,[16]; first compound 0.4 µM,0.732
same,relative viability,[16]; first compound 1.265 µM,0.699
same,relative viability,[16]; first compound 4 µM,0.711
same,relative viability,[17]; first compound 0.04 µM,0.857
same,relative viability,[17]; first compound 0.1265 µM,0.693
same,relative viability,[17]; first compound 0.4 µM,0.816
same,relative viability,[17]; first compound 1.265 µM,0.719
same,relative viability,[17]; first compound 4 µM,0.819
same,relative viability,[18]; first compound 0.04 µM,0.984
same,relative viability,[18]; first compound 0.1265 µM,1.04
same,relative viability,[18]; first compound 0.4 µM,0.995
same,relative viability,[18]; first compound 1.265 µM,0.991
same,relative viability,[18]; first compound 4 µM,0.919
same,relative viability,[19]; first compound 0.04 µM,0.507
same,relative viability,[19]; first compound 0.1265 µM,0.467
same,relative viability,[19]; first compound 0.4 µM,0.527
same,relative viability,[19]; first compound 4 µM,0.448
same,relative viability,[20]; first compound 0.04 µM,1.14
same,relative viability,[20]; first compound 0.1265 µM,0.97
same,relative viability,[20]; first compound 0.4 µM,0.961
same,relative viability,[20]; first compound 1.265 µM,1.02
same,relative viability,[20]; first compound 4 µM,1.02
same,relative viability,[21]; first compound 0.04 µM,0.826
same,relative viability,[21]; first compound 0.1265 µM,0.787
same,relative viability,[21]; first compound 0.4 µM,0.848
same,relative viability,[21]; first compound 1.265 µM,0.755
same,relative viability,[21]; first compound 4 µM,0.822
same,relative viability,[22]; first compound 0.04 µM,0.951
same,relative viability,[22]; first compound 0.1265 µM,0.901
same,relative viability,[22]; first compound 1.265 µM,0.868
same,relative viability,[22]; first compound 4 µM,0.93
